Where “and” joins values, the source holds several entries; their conditions need not be identical. Equal values may be shown once. Toxic doses and inconclusive results are not listed. Rule for the calls: active = survival T/C of 150% or more; inactive = T/C below 125% in these data.
Test system: P388 leukemia ip, CD2F1 mice, survival T/C
Assay: NCI In Vivo Anticancer Drug Screen. Data for tumor model P388 Leukemia (intraperitoneal) in CD2F1 (CDF1) mice
Settings: endpoint: median survival time, higher = longer survival
In short: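 Mice carrying the transplanted tumor received test compound or vehicle. Survival was recorded in each group, and the value is the treated-group measurement divided by that of the vehicle-treated control group.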

[1] = dose: 60.0 mg/kg/injection, schedule: Q01DX005 (ip), vehicle: Klucel (hydroxypropylcellulose) (HPC)
[2] = dose: 120.0 mg/kg/injection, schedule: Q01DX005 (ip), vehicle: Klucel (hydroxypropylcellulose) (HPC)
[3] = dose: 240.0 mg/kg/injection, schedule: Q01DX005 (ip), vehicle: Klucel (hydroxypropylcellulose) (HPC)
[4] = dose: 50.0 mg/kg/injection, schedule: Q01DX005 (ip), vehicle: Klucel (hydroxypropylcellulose) (HPC)
[5] = dose: 100.0 mg/kg/injection, schedule: Q01DX005 (ip), vehicle: Klucel (hydroxypropylcellulose) (HPC)
[6] = dose: 200.0 mg/kg/injection, schedule: Q01DX005 (ip), vehicle: Klucel (hydroxypropylcellulose) (HPC)
[7] = dose: 50.0 mg/kg/injection, schedule: Q01DX009 (ip), vehicle: saline
[8] = dose: 100.0 mg/kg/injection, schedule: Q01DX009 (ip), vehicle: saline
[9] = dose: 200.0 mg/kg/injection, schedule: Q01DX009 (ip), vehicle: saline
[10] = dose: 50.0 mg/kg/injection, schedule: Q01DX005 (ip), vehicle: saline with Tween-80
[11] = dose: 100.0 mg/kg/injection, schedule: Q01DX005 (ip), vehicle: saline with Tween-80
[12] = dose: 200.0 mg/kg/injection, schedule: Q01DX005 (ip), vehicle: saline with Tween-80

Measured: T/C

C[N+]1=C(c2ccc(Br)cc2)OCC1(C)C
inactive: dose: 25.0 mg/kg/injection, schedule: Q01DX009 (ip), vehicle: other 104 % of control | dose: 50.0 mg/kg/injection, schedule: Q01DX009 (ip), vehicle: other 101 % of control | dose: 100.0 mg/kg/injection, schedule: Q01DX009 (ip), vehicle: other 97 % of control | dose: 200.0 mg/kg/injection, schedule: Q01DX009 (ip), vehicle: other 101 % of control | dose: 400.0 mg/kg/injection, schedule: Q01DX009 (ip), vehicle: other 101 % of control

COCC1(C)CCCC2(C)C3=CC(O)CCC3CCC12 (configuration not stated)
inactive: dose: 100.0 mg/kg/injection, schedule: Q01DX001 (ip), vehicle: saline 98 % of control | dose: 200.0 mg/kg/injection, schedule: Q01DX001 (ip), vehicle: saline 97 % of control | dose: 400.0 mg/kg/injection, schedule: Q01DX001 (ip), vehicle: saline 98 % of control

CC1=CC(O)(c2nc3ccccc3s2)CC(C)(C)C1 (configuration not stated)
inactive: [1] 93 % of control | [2] 94 % of control | [3] 92 % of control

CCCOC(=O)CCCC1=NC2=CC=CC3=NC(C)=NC(=N1)N23
inactive: dose: 25.0 mg/kg/injection, schedule: Q01DX009 (ip), vehicle: saline with Tween-80 107 % of control | dose: 50.0 mg/kg/injection, schedule: Q01DX009 (ip), vehicle: saline with Tween-80 104 % of control | dose: 100.0 mg/kg/injection, schedule: Q01DX009 (ip), vehicle: saline with Tween-80 104 % of control

COc1ccc(-n2c(SC)nccc2=O)cc1
inactive: dose: 100.0 mg/kg/injection, schedule: Q04DX003 (ip), vehicle: Klucel (hydroxypropylcellulose) (HPC) 100 % of control | dose: 200.0 mg/kg/injection, schedule: Q04DX003 (ip), vehicle: Klucel (hydroxypropylcellulose) (HPC) 99 % of control

CCCCN(Cc1c(O)ccc2ccccc12)Cc1c(O)ccc2ccccc12
inactive: [4] 95 % of control | [5] 97 % of control | [6] 94 % of control

O=C(O)C1CCN1C1CCCCC1 (configuration not stated)
inactive: dose: 100.0 mg/kg/injection, schedule: Q01DX009 (ip), vehicle: saline sonified 90 % of control | dose: 200.0 mg/kg/injection, schedule: Q01DX009 (ip), vehicle: saline sonified 100 % of control | dose: 400.0 mg/kg/injection, schedule: Q01DX009 (ip), vehicle: saline sonified 104 % of control

O=C(O)c1cc(N2C(=O)c3ccc4c5ccc6c7c(ccc(c8ccc(c3c48)C2=O)c75)C(=O)N(c2ccc(O)c(C(=O)O)c2)C6=O)ccc1O
inactive: [7] 98 % of control | [8] 91 % of control | [9] 90 % of control

COc1cccc(/C=C/C(C)=N/NC(N)=S)c1
inactive: dose: 6.25 mg/kg/injection, schedule: Q01DX005 (ip), vehicle: saline with Tween-80 107 % of control | dose: 12.5 mg/kg/injection, schedule: Q01DX005 (ip), vehicle: saline with Tween-80 107 % of control | dose: 25.0 mg/kg/injection, schedule: Q01DX005 (ip), vehicle: saline with Tween-80 111 % of control | [10] 118 % of control | [11] 101 % of control

O=C1c2ccccc2C(=O)N1CCCC[P+](c1ccccc1)(c1ccccc1)c1ccccc1
inactive: dose: 1.5 mg/kg/injection, schedule: Q01DX009 (ip), vehicle: other 112 % of control | dose: 3.0 mg/kg/injection, schedule: Q01DX009 (ip), vehicle: other 116 % of control | dose: 6.0 mg/kg/injection, schedule: Q01DX009 (ip), vehicle: other 116 % of control | dose: 9.0 mg/kg/injection, schedule: Q01DX009 (ip), vehicle: other 121 % of control

N#C/C(N)=C(\C#N)N=Cc1ccc(N(CCCl)CCCl)cc1
inactive: [10] 100 % of control | [11] 104 % of control | [12] 92 % of control

CC(C)(C)/C=C/N=NNc1cc2ccccc2s1
inactive: [1] 100 % of control | [2] 105 % of control | [3] 108 % of control

O=C(Nc1cccc(C(F)(F)F)c1)c1cc(Br)cc(Br)c1O
inactive: dose: 6.25 mg/kg/injection, schedule: Q01DX009 (ip), vehicle: Klucel (hydroxypropylcellulose) (HPC) 95 % of control | dose: 12.5 mg/kg/injection, schedule: Q01DX009 (ip), vehicle: Klucel (hydroxypropylcellulose) (HPC) 100 % of control | dose: 25.0 mg/kg/injection, schedule: Q01DX009 (ip), vehicle: Klucel (hydroxypropylcellulose) (HPC) 91 % of control

COCCCOC(=O)Oc1ccc(CC(N)C(=O)O)cc1 (configuration not stated)
inactive: [4] 99 % of control | [5] 99 % of control | [6] 96 % of control

Oc1ccc(Cl)cc1C1CCCCC1
inactive: [7] 100 % of control | [8] 100 % of control | [9] 98 % of control

[CH3][Sn]([CH3])([n]1ccnc1)[n]1ccnc1
inactive: dose: 6.25 mg/kg/injection, schedule: Q01DX005 (ip), vehicle: Klucel (hydroxypropylcellulose) (HPC) 120 % of control | dose: 12.5 mg/kg/injection, schedule: Q01DX005 (ip), vehicle: Klucel (hydroxypropylcellulose) (HPC) 119 % of control | [4] 120 % of control

COc1ccc(C(C)c2cc3c(cc2OCCOC(C)=O)OCO3)cc1 (configuration not stated)
inactive: dose: 100.0 mg/kg/injection, schedule: Q04DX002 (ip), vehicle: saline with Tween-80 103 % of control | dose: 200.0 mg/kg/injection, schedule: Q04DX002 (ip), vehicle: saline with Tween-80 100 % of control | dose: 400.0 mg/kg/injection, schedule: Q04DX002 (ip), vehicle: saline with Tween-80 100 % of control

CCOc1c(C)cc(C(C)c2cc3c(cc2OC)OCO3)cc1C (configuration not stated)
inactive: [10] 97 % of control | [11] 99 % of control | [12] 107 % of control

O=C(CC1=NC2NN(c3ccccc3)C(=O)C2=C1CC(=O)c1ccccc1)c1ccccc1 (configuration not stated)
inactive: dose: 60.0 mg/kg/injection, schedule: Q01DX005 (ip), vehicle: saline 100 % of control | dose: 120.0 mg/kg/injection, schedule: Q01DX005 (ip), vehicle: saline 107 % of control | dose: 240.0 mg/kg/injection, schedule: Q01DX005 (ip), vehicle: saline 110 % of control

Cc1ncc(C)c2c([N+](=O)[O-])cccc12
inactive: dose: 50.0 mg/kg/injection, schedule: Q01DX009 (ip), vehicle: Klucel (hydroxypropylcellulose) (HPC) 106 % of control | dose: 100.0 mg/kg/injection, schedule: Q01DX009 (ip), vehicle: Klucel (hydroxypropylcellulose) (HPC) 110 % of control | dose: 200.0 mg/kg/injection, schedule: Q01DX009 (ip), vehicle: Klucel (hydroxypropylcellulose) (HPC) 96 % of control

[NH-]C(CO)C(=O)O.[NH-]C(CO)C(=O)O.[Pd+2] (configuration not stated)
inactive: dose: 3.13 mg/kg/injection, schedule: Q04DX003 (ip), vehicle: water 103 % of control | dose: 6.25 mg/kg/injection, schedule: Q04DX003 (ip), vehicle: water 100 % of control | dose: 12.5 mg/kg/injection, schedule: Q01DX009 (ip), vehicle: acid diluted with saline 108 % of control | dose: 12.5 mg/kg/injection, schedule: Q01DX009 (ip), vehicle: water 104 % of control and 113 % of control | dose: 12.5 mg/kg/injection, schedule: Q04DX003 (ip), vehicle: water 97 % of control | dose: 25.0 mg/kg/injection, schedule: Q01DX009 (ip), vehicle: acid diluted with saline 109 % of control | dose: 25.0 mg/kg/injection, schedule: Q01DX009 (ip), vehicle: water 108 % of control and 109 % of control | dose: 25.0 mg/kg/injection, schedule: Q04DX003 (ip), vehicle: water 103 % of control | dose: 50.0 mg/kg/injection, schedule: Q01DX009 (ip), vehicle: acid diluted with saline 113 % of control | dose: 50.0 mg/kg/injection, schedule: Q01DX009 (ip), vehicle: water 104 % of control and 117 % of control | dose: 50.0 mg/kg/injection, schedule: Q04DX003 (ip), vehicle: water 117 % of control | dose: 100.0 mg/kg/injection, schedule: Q01DX009 (ip), vehicle: acid diluted with saline 104 % of control | dose: 100.0 mg/kg/injection, schedule: Q01DX009 (ip), vehicle: water 86 % of control | dose: 100.0 mg/kg/injection, schedule: Q04DX003 (ip), vehicle: water 106 % of control

COc1ccccc1N=N/C(=N\Nc1ccccc1OC)C(=O)Nc1ccccc1
inactive: dose: 6.25 mg/kg/injection, schedule: Q01DX009 (ip), vehicle: saline 89 % of control | dose: 12.5 mg/kg/injection, schedule: Q01DX009 (ip), vehicle: saline 91 % of control | dose: 25.0 mg/kg/injection, schedule: Q01DX009 (ip), vehicle: saline 90 % of control | [8] 93 % of control

— PubChem BioAssay AID330 (DTP/NCI, 2004)
